Source: ChEMBL document CHEMBL5625234, “Magic shotgun approach to anti-inflammatory pharmacotherapy: Synthesis of novel thienopyrimidine monomers/heterodimer as dual COX-2 and 15-LOX inhibitors endowed with potent antioxidant activity” (Eur J Med Chem, 2023)
pIC50: −log10 of the molar value.

Tests used:
[1] = target: T1, Prostaglandin G/H synthase 1 (Ovis aries, UniProt P05979); test: Inhibition of ovine COX-1 using arachidonic acid as substrate preincubated for 10 mins followed by substrate addition and measured after 2 mins by ELISA
T1 sequence (P05979 whole entry): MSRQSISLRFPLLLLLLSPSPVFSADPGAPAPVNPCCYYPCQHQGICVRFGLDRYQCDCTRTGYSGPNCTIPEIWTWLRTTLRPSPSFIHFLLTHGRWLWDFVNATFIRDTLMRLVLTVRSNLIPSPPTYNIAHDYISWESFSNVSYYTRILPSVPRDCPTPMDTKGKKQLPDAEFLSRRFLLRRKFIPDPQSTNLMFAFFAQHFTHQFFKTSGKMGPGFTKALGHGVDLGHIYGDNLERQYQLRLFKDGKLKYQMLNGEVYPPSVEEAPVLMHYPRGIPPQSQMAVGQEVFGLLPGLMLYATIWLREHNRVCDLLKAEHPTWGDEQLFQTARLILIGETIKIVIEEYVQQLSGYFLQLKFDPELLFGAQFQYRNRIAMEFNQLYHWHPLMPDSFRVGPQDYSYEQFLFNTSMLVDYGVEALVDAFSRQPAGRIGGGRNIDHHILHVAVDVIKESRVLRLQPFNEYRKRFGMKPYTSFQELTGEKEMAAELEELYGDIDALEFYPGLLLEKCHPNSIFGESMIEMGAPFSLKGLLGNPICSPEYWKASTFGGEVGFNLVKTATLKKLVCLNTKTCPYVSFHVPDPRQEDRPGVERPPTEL

[2] = Inhibition of soybean 15-LOX using arachidonic acid/linolenic acid as substrate preincubated for 5 mins followed by substrate addition and measured after 10 mins by absorbance based assay; parameters: species or system Glycine max
RAW264.7 [3] = test: cells; settings: Mus musculus
RAW264.7 [4] = test: cells; settings: Mus musculus; remark: listed apart in the source
RAW264.7 [5] = test: cells; settings: Mus musculus; remark: listed apart in the source
RAW264.7 [6] = test: cells; settings: Mus musculus; remark: listed apart in the source
[7] = target: T2, Prostaglandin G/H synthase 2 (Homo sapiens, UniProt P35354); test: Inhibition of human COX-2 using arachidonic acid as substrate incubated for 30 secs by ELISA
T2 sequence (P35354 whole entry): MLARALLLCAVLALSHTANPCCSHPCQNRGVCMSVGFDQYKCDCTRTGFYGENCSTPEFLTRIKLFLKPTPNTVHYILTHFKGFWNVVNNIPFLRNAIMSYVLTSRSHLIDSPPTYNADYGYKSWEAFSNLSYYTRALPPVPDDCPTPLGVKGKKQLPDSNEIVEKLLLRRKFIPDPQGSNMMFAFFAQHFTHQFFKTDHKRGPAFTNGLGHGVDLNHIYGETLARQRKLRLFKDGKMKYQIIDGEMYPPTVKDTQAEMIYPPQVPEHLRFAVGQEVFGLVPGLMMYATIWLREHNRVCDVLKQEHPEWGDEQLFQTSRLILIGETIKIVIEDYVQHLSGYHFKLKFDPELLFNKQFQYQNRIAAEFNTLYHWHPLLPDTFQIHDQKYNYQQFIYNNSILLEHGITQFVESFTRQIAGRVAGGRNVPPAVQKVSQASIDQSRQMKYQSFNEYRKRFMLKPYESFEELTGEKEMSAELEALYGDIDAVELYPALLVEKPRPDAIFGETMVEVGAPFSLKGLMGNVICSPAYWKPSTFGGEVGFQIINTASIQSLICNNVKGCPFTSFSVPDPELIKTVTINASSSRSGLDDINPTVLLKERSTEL

Ovis aries = species: Ovis aries; test: Selectivity index, ratio of IC50 for inhibition of ovine COX-1 to IC50 for inhibition of ovine COX-2
[8] = target: T3, Prostaglandin G/H synthase 2 (Ovis aries, UniProt P79208); test: Inhibition of ovine COX-2 using arachidonic acid as substrate preincubated for 5 mins followed by substrate addition and measured after 2 mins by colorimetric assay
T3 sequence (P79208 whole entry): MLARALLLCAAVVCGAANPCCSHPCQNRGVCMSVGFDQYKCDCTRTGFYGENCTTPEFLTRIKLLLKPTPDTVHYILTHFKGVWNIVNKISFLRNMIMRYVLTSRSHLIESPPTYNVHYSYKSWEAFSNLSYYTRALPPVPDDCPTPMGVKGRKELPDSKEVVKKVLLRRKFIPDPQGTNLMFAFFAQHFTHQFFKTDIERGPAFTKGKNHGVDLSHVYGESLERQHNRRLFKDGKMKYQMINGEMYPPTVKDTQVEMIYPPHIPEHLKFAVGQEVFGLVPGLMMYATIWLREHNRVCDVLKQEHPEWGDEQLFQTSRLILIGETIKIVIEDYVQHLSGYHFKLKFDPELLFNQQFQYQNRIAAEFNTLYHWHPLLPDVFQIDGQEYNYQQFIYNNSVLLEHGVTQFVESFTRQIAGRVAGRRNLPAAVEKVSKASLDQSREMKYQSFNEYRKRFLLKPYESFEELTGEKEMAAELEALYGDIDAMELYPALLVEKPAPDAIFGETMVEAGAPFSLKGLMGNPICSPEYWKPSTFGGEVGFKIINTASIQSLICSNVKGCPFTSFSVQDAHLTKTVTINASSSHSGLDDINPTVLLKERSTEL

[9] = target: T2, Prostaglandin G/H synthase 2; test: Inhibition of human COX-2
[10] = target: COX-1/COX-2 (Homo sapiens) (UniProt P35354+P23219); test: Selectivity index, ratio of IC50 for inhibition of human COX-1 to IC50 for inhibition of human COX-2; format: protein assay
Sequence of COX-1/COX-2 (Homo sapiens) (P23219 whole entry, looked up, one chain of several): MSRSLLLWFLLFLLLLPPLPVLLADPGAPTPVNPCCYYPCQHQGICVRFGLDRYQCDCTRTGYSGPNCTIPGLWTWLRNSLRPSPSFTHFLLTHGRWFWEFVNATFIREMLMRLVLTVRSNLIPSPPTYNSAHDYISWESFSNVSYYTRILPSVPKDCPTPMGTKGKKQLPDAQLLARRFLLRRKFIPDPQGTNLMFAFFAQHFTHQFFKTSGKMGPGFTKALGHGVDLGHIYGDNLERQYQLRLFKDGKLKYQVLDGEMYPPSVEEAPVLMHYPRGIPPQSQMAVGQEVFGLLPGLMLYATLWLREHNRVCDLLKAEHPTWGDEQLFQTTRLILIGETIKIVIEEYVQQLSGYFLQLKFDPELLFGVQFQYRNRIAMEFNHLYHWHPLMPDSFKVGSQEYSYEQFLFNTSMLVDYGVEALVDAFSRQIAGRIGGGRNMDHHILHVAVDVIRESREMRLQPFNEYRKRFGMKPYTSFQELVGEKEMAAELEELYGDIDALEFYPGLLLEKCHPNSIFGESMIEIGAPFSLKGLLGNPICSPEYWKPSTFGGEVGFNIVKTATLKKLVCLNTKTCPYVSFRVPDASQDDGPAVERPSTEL

[11] = Inhibition of soybean 15-LOX using arachidonic acid as substrate preincubated with compound followed by substrate addition and measured after 5 mins by absorbance based microplate reader; parameters: species or system Glycine max
[12] = target: T4, Polyunsaturated fatty acid lipoxygenase ALOX15 (Homo sapiens, UniProt P16050); test: Inhibition of 15-LOX (unknown origin) using linoleic acid as substrate incubated for 5 mins by absorbance based assay
T4 sequence (P16050 whole entry): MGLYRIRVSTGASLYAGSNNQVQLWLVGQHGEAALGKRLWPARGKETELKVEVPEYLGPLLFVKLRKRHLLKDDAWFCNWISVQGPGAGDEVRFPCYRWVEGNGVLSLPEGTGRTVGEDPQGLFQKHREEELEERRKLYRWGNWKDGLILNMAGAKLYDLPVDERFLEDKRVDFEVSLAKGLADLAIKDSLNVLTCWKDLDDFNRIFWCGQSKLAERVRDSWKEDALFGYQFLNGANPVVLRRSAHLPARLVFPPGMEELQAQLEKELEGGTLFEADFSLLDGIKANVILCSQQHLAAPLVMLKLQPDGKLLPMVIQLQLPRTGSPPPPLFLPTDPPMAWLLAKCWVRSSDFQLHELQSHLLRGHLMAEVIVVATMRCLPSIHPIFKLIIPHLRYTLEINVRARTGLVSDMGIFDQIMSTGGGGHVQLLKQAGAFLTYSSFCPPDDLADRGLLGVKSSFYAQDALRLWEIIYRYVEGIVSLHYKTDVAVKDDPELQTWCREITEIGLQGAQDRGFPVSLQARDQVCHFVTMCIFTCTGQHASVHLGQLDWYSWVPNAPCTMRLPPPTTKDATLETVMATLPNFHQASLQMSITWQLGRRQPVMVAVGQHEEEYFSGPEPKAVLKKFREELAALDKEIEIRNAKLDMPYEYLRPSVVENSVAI

Compound | pIC50 [1] | pIC50 [2] | pIC50 (RAW264.7 [3]) | other results
Clc1ccc(-c2nc(Nc3ccc(Br)cc3)c3c4c(sc3n2)CCCC4)cc1 | 5.04 | 5.68 | < 4.00 | 
COc1ccc(-c2nc(Nc3ccc(Br)cc3)c3c4c(sc3n2)CCCC4)cc1 | 5.02 | 5.62 | < 4.00 | 
COc1cc(-c2nc(Nc3ccc(F)cc3)c3c4c(sc3n2)CCCC4)cc(OC)c1OC | 4.96 | 5.64 | < 4.00 | pIC50 (RAW264.7 [4]): 3.77
COc1ccc(-c2nc(Nc3ccc(F)cc3)c3c4c(sc3n2)CCCC4)cc1 | 4.94 | 5.71 | < 4.00 | pIC50 (RAW264.7 [5]): < 4.00
O=c1[nH]/c(=C\c2nnc(-c3ccc(O)cc3)s2)s/c1=C\c1ccc(Cl)c(Cl)c1 | 4.81 | 4.93 |  | 
CS(=O)(=O)c1ccc(C2CN(c3ccc(C(F)(F)F)cc3)N=N2)cc1 (centres undefined) |  |  |  | pIC50 [7]: 6.65
Clc1ccc(-c2nn(-c3ccccc3)cc2/C=N/Nc2ncnc3c(-c4ccccc4)csc23)cc1 |  |  |  | Ratio IC50 (Ovis aries): 248; pIC50 [8]: 7.32
COc1ccc(-c2nc(NNc3ncnc4sc5c(c34)CCCC5)c3c4c(sc3n2)CCCC4)cc1 | 4.95 | 5.73 | < 4.00 | 
CSc1nnc2n(Cc3ccccc3)c(=O)c3c4c(sc3n12)CCCC4 |  |  |  | pIC50 [9]: 6.28; Ratio IC50 [10]: 192
O=C(C/C(=C/c1cccc([N+](=O)[O-])c1)c1n[nH]c(=S)o1)c1ccc(Cl)c(Cl)c1 | 4.98 |  |  | pIC50 [11]: 5.79
COc1cc(/C=C2\S/C(=N/c3nnc(C)s3)NC2=O)cc(OC)c1OC | 4.91 | 4.96 |  | 
CCn1c(-n2cc(/C=N/N=c3\scc(-c4ccc(Br)cc4)n3-c3ccccc3)c(-c3ccc(Cl)cc3)n2)nc2[nH]c(=O)n(C)c(=O)c21 |  |  |  | pIC50 [12]: 5.75
CCn1c(-n2cc(/C=N/N=c3\scc(-c4ccc(Br)cc4)n3-c3ccccc3)c(-c3ccc(OC)cc3)n2)nc2[nH]c(=O)n(C)c(=O)c21 |  |  |  | pIC50 [12]: 5.74
O=[N+]([O-])c1ccc(-c2nc(Nc3ccc(Br)cc3)c3c4c(sc3n2)CCCC4)cc1 | 5.01 | 5.47 | < 4.00 | pIC50 (RAW264.7 [4]): < 4.00

The next lines start with results.

pIC50 [1] | pIC50 [2] | pIC50 (RAW264.7 [3]) | Compound | other results
5.14 | 5.44 | < 4.00 | O=[N+]([O-])c1ccc(-c2nc(Nc3ccc(F)cc3)c3c4c(sc3n2)CCCC4)cc1 | 
5.19 | 5.40 | < 4.00 | O=[N+]([O-])c1ccc(-c2nc(Nc3cccc(Br)c3)c3c4c(sc3n2)CCCC4)cc1 | 
5.09 | 5.35 | < 4.00 | Cc1ccc(Nc2nc(-c3ccc(Cl)cc3)nc3sc4c(c23)CCCC4)cc1 | pIC50 (RAW264.7 [6]): < 4.00
5.24 | 5.32 |  | Fc1ccc(Nc2nc(-c3ccc(Cl)cc3)nc3sc4c(c23)CCCC4)cc1 | pIC50 (RAW264.7 [5]): < 4.00
5.07 | 5.47 | < 4.00 | Clc1ccc(-c2nc(Nc3cccc(Br)c3)c3c4c(sc3n2)CCCC4)cc1 | pIC50 (RAW264.7 [6]): < 4.00
5.09 | 5.56 | < 4.00 | Cc1ccc(Nc2nc(-c3ccc([N+](=O)[O-])cc3)nc3sc4c(c23)CCCC4)cc1 | 
5.07 | 5.58 | < 4.00 | COc1cc(-c2nc(Nc3ccc(C)cc3)c3c4c(sc3n2)CCCC4)cc(OC)c1OC | pIC50 (RAW264.7 [6]): < 4.00; pIC50 (RAW264.7 [5]): < 4.00
